Measurements from patent US20070264191A1, “Materials and Methods Relating to the Treatment of Glioblastomas” (priority 2004, published 2007).
Peptide text beside a SMILES is read from it.

Assays:
SF767 glioma cells = test: Transfection with peptide/pNGVL-Luc complexes, luciferase activity, SF767; assay type: cell-based, human
Procedure: The formation and transfection of peptide/DNA complexes were carried out according to Patel et al. with slight modifications. […] […] […] The peptide was added dropwise to the DNA solution while vortexing gently (Stuart Scientific, UK). This mixture was allowed to incubate at room temperature (RT) for 30 min. After 30 min, the mixture was diluted to 4 μg/ml DNA with DMEM in the presence of 100 μM of chloroquine, and added to cells.
The human tumor cell lines, dGli36, SF767, U251, A549, HeLa, HepG2, and CNE2 were cultured in DMEM supplemented with 10% fetal bovine serum (FBS) (Hyclone Laboratories, Logan, Utah). For transfection, 3×10^5 cells were seeded into each well of a six-well plate (Nunc, Roskilde, Denmark). After culturing the cells overnight, the cells were washed twice with PBS. Freshly prepared peptide/DNA complexes were added into each well and incubated for 2 h at 37° C. For transfection performed in the presence of serum, FBS was added to a final concentration of 10% directly after addition of peptide/DNA complexes to each well. The reporter gene activity was assayed after 24 h or 48 h.
Cells were harvested from 6-well plates 24 h or 48 h following transfection, washed, resuspended in 120 μl of Tris-HCl (pH 7.8), and freeze-thawed three times. Cell debris was discarded following centrifugation at 14,000 g at 4° C. for 10 min. One hundred μl of the supernatant collected was used for assaying luciferase activity using the Auto-Lumat LB952 luminometer (EG&G Berthold, Bad Wildbad, Germany). Five microliter of the supernatant collected was used for the determination of protein concentration using the Bio-Rad protein assay dye reagent (Bio-Rad Laboratories, Hercules, USA) with the Ultrospec 3000 UV/visible spectrophotometer (Amersham Biosciences AB, Uppsala, Sweden).

U87MG glioma cell line = settings: Spear et al., 2001; cited from earlier work
other glioma cells = settings: Spear et al., 2001; cited from earlier work
[1] = test system: SF767, U251MG, and M059K human glioma cell lines; test: In vitro fluorescent peptide binding assay, glioma cell lines; settings: lissamine-rhodamine conjugated peptide, 100 ng, 20 min, 37° C., FIG. 4
Procedure: (§1) For in vitro binding assay, 1×10^5 cells were seeded into each well of a 24-well dish (Nunc, Roskilde, Denmark). After culturing the cells overnight at 37° C., the cells were washed once with PBS, followed by incubating in blocking buffer containing PBS with 1% BSA at room temperature for 1 h. The cells were washed twice with PBS. One hundred nanogram of lissamine-rhodamine conjugated peptide (Mimotopes, Victoria, Australia) were added to the blocking buffer containing 0.1% sodium azide, and incubated with the cells at 37° C. for 20 min. This is followed by 5 washes of PBS with 0.1% Tween-20 at RT for 5 min intervals. The cells were then fix in 4% paraformaldehyde, followed by counterstaining using FITC-phalloidin (Sigma-Aldrich Corp., St. Louis, Mo.) and mounted. Images were captured digitally and analyzed using LSM 510 confocal microscope (Carl Zeiss Microscopy, Gottingen, Germany) with appropriate filters.
(§2) To determine the direct specific binding of the (K16)-MG11 peptide to cell surface of glioma cells, (K16)-MG11 peptide was conjugated to lissamine rhodamine. After incubating the conjugated (K16)-MG11 to the various tumor cell lines, SF767, U251MG, M059K, A549, HepG2, and HK1, for 20 minutes at 37° C., the cells were examined under confocal microscopy and the level of fluorescence detected were compared between glioma and non-glioma cells. […]

[2] = test system: non-glioma cell lines (A549, HepG2, HK1); test: In vitro fluorescent peptide binding assay, non-glioma cell lines; parameters: species or system human; settings: lissamine-rhodamine conjugated peptide, 100 ng, 20 min, 37° C., FIG. 4
Procedure: as §1, §2

SF767 glioma xenograft = test: In vivo fluorescent peptide binding assay, intratumoral injection; settings: SCID mice, 100 μg lissamine-rhodamine conjugated peptide intratumorally, 20 min, FIG. 6
Procedure: SF767-tumor bearing mice were randomized into 2 groups (2 per group). Fifty microliter of 100 μg of lissamine rhodamine conjugated (K16)-MG11 or (K16)-H42 was injected intratumorally into 2 mice harboring the tumor, and allowed to circulate for 20 min. After 20 min, the mice were anethesized and perfused through the heart with PBS followed by 4% paraformaldehyde. The tumor were dissected and prepared for cryostat sections. The sections were then counterstained in FITC-phalloidin and mounted. Images were examined using LSM 510 meta confocal microscope (Carl Zeiss Microscopy, Göttingen, Germany) with appropriate filters.
After 20 min of circulation, the mouse bearing the SF767 glioma xenograft was perfused and tumor was harvested. The tumor sections were counterstained with FITC-labeled phalloidin, which stains F-actin, to determine the cell surface.

For `CC[C@H](C)[C@H](NC(=O)[C@H](CO)NC(=O)[C@H](CCCCN)NC(=O)[C@H](CCCCN)NC(=O)[C@H](CCCCN)NC(=O)[C@H](CCCCN)NC(=O)[C@H](CCCCN)NC(=O)[C@H](CCCCN)NC(=O)[C@H](CCCCN)NC(=O)[C@H](CCCCN)NC(=O)[C@H](CCCCN)NC(=O)[C@H](CCCCN)NC(=O)[C@H](CCCCN)NC(=O)[C@H](CCCCN)NC(=O)[C@H](CCCCN)NC(=O)[C@H](CCCCN)NC(=O)[C@H](CCCCN)NC(=O)[C@@H](N)CCCCN)C(=O)N1CCC[C@H]1C(=O)N[C@H](C(=O)N[C@@H](CCCCN)C(=O)N[C@@H](Cc1ccccc1)C(=O)N[C@@H](CC(N)=O)C(=O)N[C@@H](CCCCN)C(=O)N1CCC[C@H]1C(=O)N[C@@H](CC(C)C)C(=O)N[C@@H](Cc1c[nH]c2ccccc12)C(=O)N[C@@H](C)C(=O)N[C@H](C(=O)N[C@@H](Cc1ccccc1)C(=O)N1CCC[C@H]1C(=O)N1CCC[C@H]1C(=O)N[C@@H](CCCNC(=N)N)C(=O)N1CCC[C@H]1C(=O)N1CCC[C@H]1C(=O)N[C@@H](Cc1c[nH]c2ccccc12)C(=O)N[C@@H](CC(C)C)C(=O)O)[C@@H](C)O)C(C)C` [(K16)-MG11, poly-L-lysine-SIPVKFNKP-MG11] (H-KKKKKKKKKKKKKKKKSIPVKFNKPLWATFPPRPPWL-OH), which “toxicity to treated cells” value (SF767 glioma cells; peptide: DNA ratios of 10:1 and 20:1) is on record?
The value was “toxicity could be detected”.

Which binding specificity (U87MG glioma cell line) does the source give for MCPKHPLGC here?
The binding specificity was “specific for U87MG glioma cell line”.

And the binding (other glioma cells)?
Its binding is “did not bind”.

For poly-L-lysine-SIPVKFNKP-H42 [(K16)-H42], which luciferase expression (SF767 glioma cells; complex with pNGVL-Luc, chloroquine, 48 h post transfection, FIG. 3C) is on record?
The luciferase expression was 8444 RLU/μg.

What about the “luciferase expression at various peptide to DNA ratios” value (SF767 glioma cells; ratios 1:2, 2:1, 10:1, 20:1, 24 h post-transfection, FIG. 3A) of the same compound?
Its value is “no significant binding could be detected”.

What about the “cell surface fluorescence (confocal microscopy)” value [1] of the same compound?
Its value is “non-specific red fluorescence was observed in all cell lines”.

What about the “cell surface fluorescence (confocal microscopy)” value [2] of the same compound?
Its value is “non-specific red fluorescence was observed in all cell lines”.

And the “red fluorescence in tumor cryostat sections” value (SF767 glioma xenograft)?
Its value is “red fluorescent was not detected”.
